Measured values reported in patent US20230000773A1, “NOVEL HEADGROUP LIPID COMPOUNDS AND COMPOSITIONS FOR INTRACELLULAR DELIVERY OF THERAPEUTIC AGENTS” (ModernaTX, Inc., priority 2019, published 2023).
Structures can show the parent of a compound that is named as a salt.

Tests used:
[1] = Apparent LNP pKa by 2-(p-toluidino)-6-napthalene sulfonic acid (TNS) assay; assay type: physicochemical; details: pH at half of maximum fluorescence
[2] = Surface hydrophobicity by Generalized Polarization by Laurdan (GPL); assay type: physicochemical; details: normalized Generalized Polarization by Laurdan; higher N-GP = less polar surface
Source text: Nanoparticle compositions including a therapeutic and/or prophylactic can be optimized according to the selection of a compound according to Formula (I), (I-1), (A), (A-1), (A-1a), or (A-1b), the selection of additional lipids, the amount of each lipid in the lipid component, and the wt:wt ratio of the lipid component to the therapeutic and/or prophylactic. Nanoparticle compositions including DSPC as a phospholipid, cholesterol as a structural lipid, PEG 2 as a PEG lipid, and a compound according to Formula (I), (I-1), (A), (A-1), (A-1a), or (A-1b) were prepared. The ratios of the lipids were 50:10:38:2 mol % for the lipid according to Formula (I), (I-1), (A), (A-1), (A-1a), or (A-1b):DSPC:cholesterol:PEG 2.
Laurdan, a fluorescent aminonaphthalene ketone lipid, was post-inserted into the nanoparticle surface and the fluorescence spectrum of Laurdan was collected to determine the normalized Generalized Polarization (N-GP). Higher N-GP indicates a less polar surface.

[3] = Heparin-sepharose binding of nanoparticles
[4] = tested on: hEPO mRNA; experiment: hEPO expression in CD1-mice after intravenous administration of nanoparticles; assay type: in vivo; details: 6 h after intravenous administration, mRNA dose 0.5 mg/kg, N:P 3.4, compound:DSPC:cholesterol:PEG 2 50:10:38:2
Description: The expression of hEPO mRNA in CD1-mice was measured 6 h after intravenous administration of nanoparticles comprising a compound of the disclosure, DSPC, cholesterol, and PEG 2 in a ratio of 50:10:38:2. […] Each composition was dosed to 8 animals at an mRNA dose of 0.5 mg/kg.

Compound | LogIC50 (pKa) [1] | Average N-GP [2] | Relative % Area Bound by LNP [3] [%] | Avg. [hEPO] mIU/mL [4] [mIU/mL]
CCCCCCCCC(CC)OC(=O)CCCCCCCN(CCCCCCCC(=O)OC(CCCCCCCC)CCCCCCCC)CCCNC(C(=O)NC)C(=O)NC (stereo not shown) [Compound 16, Heptadecan-9-yl 8-((3-((1,3-bis(methylamino)-1,3-dioxopropan-2-yl)amino)propyl)(8-oxo-8-(undecan-3-yloxy)octyl)amino)octanoate Trifluoroacetate Salt] | 7.01 | 0.595 | 57.65 | 1.72E+05
CCCCCCCCC(CC)OC(=O)CCCCCCCN(CCCCCCCC(=O)OC(CCCCCCCC)CCCCCCCC)CCCNc1nccnc1NC (stereo not shown) [Compound 25, Heptadecan-9-yl 8-((3-((3-(methylamino)pyrazin-2-yl)amino)propyl)(8-oxo-8-(undecan-3-yloxy)octyl)amino)octanoate, trifluoroacetate Salt] | 7.46 | 0.869 | 0 | 4.29E+05
CCCCCCCCC(CC)OC(=O)CCCCCCCN(CCCCCCCC(=O)OC(CCCCCCCC)CCCCCCCC)CCCNC(=O)CS(=O)(=O)NC (stereo not shown) [Compound 76, Heptadecan-9-yl 8-((3-(2-(N-methylsulfamoyl)acetamido)propyl)(8-oxo-8-(undecan-3-yloxy)octyl)amino)octanoate] | 6.92 | 0.683 | 31.61 | 1.50E+05
CCCCCCCCC(CC)OC(=O)CCCCCCCN(CCCCCCCC(=O)OC(CCCCCCCC)CCCCCCCC)CCCN/C(=N/O)c1nonc1N (racemic) [Compound 55/56, Heptadecan-9-yl (E/Z)-8-((3-(4-amino-N′-hydroxy-1,2,5-oxadiazole-3-carboximidamido)propyl)(8-oxo-8-(undecan-3-yloxy)octyl)amino)octanoate] | 5.61 |  | 0 | 1.37E+05
CCCCCCCCC(CC)OC(=O)CCCCCCCN(CCCCCCCC(=O)OC(CCCCCCCC)CCCCCCCC)CCCNc1nnc(N)[nH]1 (stereo not shown) [Compound 11, Heptadecan-9-yl 8-((3-((5-amino-4H-1,2,4-triazol-3-yl)amino)propyl)(8-oxo-8-(undecan-3-yloxy)octyl)amino)octanoate] | 6.88 |  |  | 1.69E+04

Now from value to compound, other results behind:

LogIC50 (pKa) [1] | Average N-GP [2] | Relative % Area Bound by LNP [3] [%] | Compound | Avg. [hEPO] mIU/mL [4] [mIU/mL]
6.94 | 0.622 | 36.14 | CCCCCCCCC(CC)OC(=O)CCCCCCCN(CCCCCCCC(=O)OC(CCCCCCCC)CCCCCCCC)CCCNC(=O)C1CCC(=O)N1 (stereo not shown) [Compound 78, Heptadecan-9-yl 8-((8-oxo-8-(undecan-3-yloxy)octyl)(3-(5-oxopyrrolidine-2-carboxamido)propyl)amino)octanoate] | 1.11E+05
6.48 | 0.752 | 0 | CCCCCCCCC(CC)OC(=O)CCCCCCCN(CCCCCCCC(=O)OC(CCCCCCCC)CCCCCCCC)CCCNC1=C(C#N)C(=O)OC1 (stereo not shown) [Compound 81, Heptadecan-9-yl 8-((3-((4-cyano-5-oxo-2,5-dihydrofuran-3-yl)amino)propyl)(8-oxo-8-(undecan-3-yloxy)octyl)amino)octanoate Trifluoroacetate Salt] | 4.96E+05
6.59 | 0.737 | 0 | CCCCCCCCC(CC)OC(=O)CCCCCCCN(CCCCCCCC(=O)OC(CCCCCCCC)CCCCCCCC)CCCN/C=N/S(C)(=O)=O (stereo not shown) [Compound 86, Heptadecan-9-yl (E)-8-((3-(N′-(methylsulfonyl)formimidamido)propyl)(8-oxo-8-(undecan-3-yloxy)octyl)amino)octanoate] | 
